Measurements as given in patent US6815546B2, “Analogues of camptothecin, their use as medicaments and the pharmaceutical compositions containing them” (Societe de Recherches et d'Applications Scientifiques …, priority 1995, dated 2004).

Target: T1, DNA topoisomerase 1 of purified calf thymus (Bos taurus, UniProt F1MN93)
T1 construct: DNA topoisomerase 1 of purified calf thymus (Gibco-BRL, Paisley, United Kingdom); purchased Gibco-BRL, Paisley, United Kingdom; host or cells: calf thymus tissue
T1 sequence (F1MN93 1-767): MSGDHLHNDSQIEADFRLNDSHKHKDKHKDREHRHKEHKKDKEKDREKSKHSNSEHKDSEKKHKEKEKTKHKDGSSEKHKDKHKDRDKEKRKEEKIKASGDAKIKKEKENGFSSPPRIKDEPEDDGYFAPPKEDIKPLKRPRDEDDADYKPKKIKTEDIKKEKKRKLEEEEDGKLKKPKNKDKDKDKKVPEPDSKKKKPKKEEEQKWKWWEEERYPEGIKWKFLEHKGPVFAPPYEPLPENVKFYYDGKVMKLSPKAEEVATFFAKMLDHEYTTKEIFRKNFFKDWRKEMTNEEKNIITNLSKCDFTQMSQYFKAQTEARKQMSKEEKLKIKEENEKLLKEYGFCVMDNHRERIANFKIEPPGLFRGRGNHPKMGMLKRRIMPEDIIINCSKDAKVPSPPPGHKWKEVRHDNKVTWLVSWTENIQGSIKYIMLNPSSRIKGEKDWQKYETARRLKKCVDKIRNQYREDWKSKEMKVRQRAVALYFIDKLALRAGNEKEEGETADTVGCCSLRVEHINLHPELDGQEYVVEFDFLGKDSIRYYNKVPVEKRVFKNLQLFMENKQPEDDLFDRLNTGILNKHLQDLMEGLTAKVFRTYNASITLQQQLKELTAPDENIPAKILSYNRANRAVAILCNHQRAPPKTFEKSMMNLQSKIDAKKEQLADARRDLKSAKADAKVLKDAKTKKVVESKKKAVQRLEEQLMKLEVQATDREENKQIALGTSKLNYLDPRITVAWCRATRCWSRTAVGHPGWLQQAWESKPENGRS
Experiment: Relaxation activity test of DNA induced by topoisomerase 1
Format: biochemical
Conditions: supercoiled pUC19, 15 minutes at 37° C.
Experimental: 1. Relaxation Activity Test of DNA Induced by Topoisomerase 1
All the reactions are carried out in a 20 μl reaction buffer constituted by 50 mM of Tris-HCl (pH 7.5), 50 mM of KCl, 0.5 mM of dithiothreitol, 10 mM of MgCl2, 0.1 mM of ethyldiamine tetraacetic acid (EDTA), 30 μg/ml of bovine serum albumin and 300 ng of supercoiled pUC19 (Pharmacia Biotech, Orsay, France) with or without the compounds to be tested at defined concentrations. All the compounds to be tested are initially dissolved in dimethylsulphoxide (DMSO) at 50 mM, the other dilutions being carried out with distilled water. […] The reaction is initiated by the addition of a unit of DNA topoisomerase 1 of purified calf thymus (Gibco-BRL, Paisley, United Kingdom) and is carried out for 15 minutes at 37° C. The reactions are stopped by the addition of 3 μl of a mixture containing 1% dodecyl sodium sulphate at 1%, 20 mM of EDTA and 500 μg/ml of K proteinase (Boehringer Mannheim, Meylan, France). After an additional incubation period of 30 minutes at 37° C., 2 μl of a loading buffer containing 10 mM of Na2HPO4, 0.3% of bromophenol blue et 16% Ficoll are added to samples which are subjected to electrophoresis in agarose gels at 1.2% at 1 V/cm for 20 hours in a buffer containing 36 mM of Tris-HCl at pH 7.8, 30 mM of Na2HPO4, 1 mM of EDTA and 2 μg/ml of chloroquine. The gels are stained with 2 μg/ml of ethidium bromide, photographed under UV light at 312 nm with a camera and the fluorescent intensity is measured with a bioProfil camera (Vilber Lournat, Lyon, France) with a view to determining the percentage of relaxed DNA. Each experiment is carried out at least three times in duplicate.
In each experiment, the supercoiled plasmid DNA is incubated alone or with topoisomerase 1. The reaction is completed within 15 minutes. For each compound to be tested or control, the supercoiled plasmid DNA is incubated in the presence of 500 μM of compound to be tested with enzyme or without enzyme plus the compound to be tested, at concentrations of 10 μM, 100 μM, 200 μM and 500 μM.

SMILES | PERCENTAGE OF RELAXED DNA (10 μM compound) [%] | PERCENTAGE OF RELAXED DNA (100 μM compound) [%] | PERCENTAGE OF RELAXED DNA (200 μM compound) [%] | PERCENTAGE OF RELAXED DNA (500 μM compound) [%]
CCC1(O)CC(=O)OCc2c1cc1n(c2=O)Cc2cc3ccccc3nc2-1 (centres unmarked) [Example 3, 5-ethyl-5-hydroxy-1,4,5,13-tetrahydro-3H,15H-oxepino [3′,4′:6,7]indolizino[1,2-b]quinoline-3,15-dione] | 79.9 | 59.9 | 55.0 | 45.7
CCC(O)(CC(=O)O)c1cc2n(c(=O)c1CO)Cc1cc3ccccc3nc1-2 (centres unmarked) [Example 4, 3-hydroxy-3-[8-(hydroxymethyl)-9-oxo-9,11-dihydroindolizino [1,2-b]quinolin-7-yl]pentanoic acid] | 99.1 | 82.2 | 67.6 | 32.9
CCc1c2c(nc3ccccc13)-c1cc3c(c(=O)n1C2)COC(=O)CC3(O)CC (centres unmarked) [Example 9, 5,12-diethyl-5-hydroxy-1,4,5,13-tetrahydro-3H,15H-oxepino[3′,4′:6,7]indolizino[1,2-b]quinoline-3,15-dione] | 77.1 | 33.9 | 29.7 | 20.4
CCc1c2c(nc3ccccc13)-c1cc(C(O)(CC)CC(=O)O)c(CO)c(=O)n1C2 (centres unmarked) [Example 10, 3-[12-ethyl-8-(hydroxymethyl)-9-oxo-9,11-dihydroindolizino[1,2-b]quinolin-7-yl]-3-hydroxypentanoic acid] | 96.9 | 45.4 | 26.2 | 8.7
CCC1(O)CC(=O)OCc2c1cc1n(c2=O)Cc2cc3cc4c(cc3nc2-1)OCCO4 (centres unmarked) [Example 11, 8-ethyl-8-hydroxy-2,3,8,9,12,15-hexahydro-10H,13H-[1,4]dioxino [2,3-g]oxepino[3′,4′:6,7]indolizino[1,2-b]quinoline-10,13-dione] | 65.0 | 50.3 | 39.8 | 31.0
